Read-outs that look alike come from different tables or passages of the source.
Assay: Pharmacokinetics and bioavailability of [14C]-MDL 73,745 in Beagle dogs
Type: in vivo, Beagle dog
Settings: for half-life / clearance / Vd / Cmax / Tmax / bioavailability: dog, in vivo; for Vd: read-out: aVd; for bioavailability: normalized to 2 mg/kg iv
Description: Three male Beagle dogs were studied. Animals were fasted 12 h before drug administration but had free access to drinking water. The following single doses of [^14 C]-MDL 73,745 were administered: intravenous (iv): 1 and 2 mg/kg; oral (po): 10 mg/kg; subcutaneous (sc): 10 mg/kg. There was a two week wash-out period between each administration. Drug was administered as a suspension in 0.5% methyl cellulose. […]

[1] = iv, 2 mg/kg, iv 2 mg/kg, dog No. 17
[2] = iv, 2 mg/kg, iv 2 mg/kg, dog No. 18
[3] = iv, 2 mg/kg, iv 2 mg/kg, dog No. 19
[4] = iv, 2 mg/kg, iv 2 mg/kg, mean ± SD of 3 dogs
[5] = po, 10 mg/kg, oral 10 mg/kg, dog No. 17
[6] = po, 10 mg/kg, oral 10 mg/kg, dog No. 18
[7] = po, 10 mg/kg, oral 10 mg/kg, dog No. 19
[8] = po, 10 mg/kg, oral 10 mg/kg, mean ± SD of 3 dogs
[9] = sc, 10 mg/kg, subcutaneous 10 mg/kg, dog No. 17
[10] = sc, 10 mg/kg, subcutaneous 10 mg/kg, dog No. 18
[11] = sc, 10 mg/kg, subcutaneous 10 mg/kg, dog No. 19
[12] = sc, 10 mg/kg, subcutaneous 10 mg/kg, mean ± SD of 3 dogs

C[Si](C)(C)c1cccc(C(=O)C(F)(F)F)c1 [MDL 73,745, 2,2,2-Trifluoro-1-(3-trimethylsilylphenyl) ethanone]
half-life [1]: 18.6 h
clearance (iv, 2 mg/kg, iv 2 mg/kg, dog No. 17, read-out: Cltot): 78.3 mL/min/kg
Vd [1]: 125 L/kg
half-life [2]: 28.1 h
clearance (iv, 2 mg/kg, iv 2 mg/kg, dog No. 18, read-out: Cltot): 63.3 mL/min/kg
Vd [2]: 153 L/kg
half-life [3]: 26.2 h
clearance (iv, 2 mg/kg, iv 2 mg/kg, dog No. 19, read-out: Cltot): 100 mL/min/kg
Vd [3]: 228 L/kg
half-life [4]: 24.3 ± 5 h
clearance (iv, 2 mg/kg, iv 2 mg/kg, mean ± SD of 3 dogs, read-out: Cltot): 80.5 ± 18.5 mL/min/kg
Vd [4]: 169 ± 53.3 L/kg
clearance (iv, iv data, read-out: drug clearance): 960 mL/min
Cmax [5]: 15.8 ng/mL
Tmax [5]: 1 h
half-life [5]: 21.4 h
Cmax [6]: 15.3 ng/mL
Tmax [6]: 0.17 h
half-life [6]: 29.5 h
Cmax [7]: 21.8 ng/mL
Tmax [7]: 1 h
half-life [7]: 17.4 h
Cmax [8]: 17.7 ± 3.58 ng/mL
Tmax [8]: 0.72 ± 0.48 h
half-life [8]: 22.8 ± 6.2 h
bioavailability (po, 10 mg/kg, oral 10 mg/kg, dog No. 17, read-out: F (AUCpo /AUCiv)): 3.4%
bioavailability (po, 10 mg/kg, oral 10 mg/kg, dog No. 18, read-out: F (AUCpo /AUCiv)): 2.6%
bioavailability (po, 10 mg/kg, oral 10 mg/kg, dog No. 19, read-out: F (AUCpo /AUCiv)): 4.5%
bioavailability (po, 10 mg/kg, oral 10 mg/kg, mean ± SD of 3 dogs, read-out: F (AUCpo /AUCiv)): 3.5 ± 1%
bioavailability (po, 10 mg/kg, oral, 10 mg/kg, read-out: Mean bioavailability (F)): 4%
Cmax [9]: 68.4 ng/mL
Tmax [9]: 6 h
half-life [9]: 12.8 h
Cmax [10]: 42.9 ng/mL
Tmax [10]: 8 h
half-life [10]: 32.7 h
Cmax [11]: 44.7 ng/mL
Tmax [11]: 4 h
half-life [11]: 24.5 h
Cmax [12]: 52 ± 14.2 ng/mL
Tmax [12]: 6 ± 2 h
half-life [12]: 23.3 ± 10 h
bioavailability (sc, 10 mg/kg, subcutaneous 10 mg/kg, dog No. 17, read-out: F): 41%
bioavailability (sc, 10 mg/kg, subcutaneous 10 mg/kg, dog No. 18, read-out: F): 25%
bioavailability (sc, 10 mg/kg, subcutaneous 10 mg/kg, dog No. 19, read-out: F): 36%
bioavailability (sc, 10 mg/kg, subcutaneous, 10 mg/kg, read-out: Mean bioavailability (F)): 34%
bioavailability (topical or ocular, 10 mg/kg, dermal patch, 10 mg/kg, read-out: Mean bioavailability (F)): 16%
bioavailability (topical or ocular, 10 mg/kg, topical dermal cream, 10 mg/kg, read-out: Mean bioavailability (F)): 7%
bioavailability (topical or ocular, 50 mg/kg, dermal patch, 50 mg/kg, read-out: Mean bioavailability (F)): 12%
bioavailability (topical or ocular, 50 mg/kg, topical dermal cream, 50 mg/kg, read-out: Mean bioavailability (F)): 3%
Metabolic Index (AUCun /AUCRAD) (iv 2 mg/kg, dog No. 17): 0.011
Metabolic Index (AUCun /AUCRAD) (iv 2 mg/kg, dog No. 18): 0.015
Metabolic Index (AUCun /AUCRAD) (iv 2 mg/kg, dog No. 19): 0.009
Metabolic Index (AUCun /AUCRAD) (iv 2 mg/kg, mean ± SD of 3 dogs): 0.012 ± 0.003
Metabolic Index (AUCun /AUCRAD) (oral 10 mg/kg, dog No. 17): 0.0006
Metabolic Index (AUCun /AUCRAD) (oral 10 mg/kg, dog No. 18): 0.0011
Metabolic Index (AUCun /AUCRAD) (oral 10 mg/kg, dog No. 19): 0.0006
Metabolic Index (AUCun /AUCRAD) (oral 10 mg/kg, mean ± SD of 3 dogs): 0.0008 ± 0.0003
Metabolic Index (AUCun /AUCRAD) (subcutaneous 10 mg/kg, dog No. 17): 0.006
Metabolic Index (AUCun /AUCRAD) (subcutaneous 10 mg/kg, dog No. 18): 0.007
Metabolic Index (AUCun /AUCRAD) (subcutaneous 10 mg/kg, dog No. 19): 0.004
Metabolic Index (AUCun /AUCRAD) (subcutaneous 10 mg/kg, mean ± SD of 3 dogs): 0.006 ± 0.002
